From PMC11078746 (Nature, 2024)
Several values for one entry are separate records, joined by “and”; a condition that tells them apart may be missing. Identical values can stand only once. Like-named read-outs stand apart in the source and are kept apart here.

Key:
[1] = system: RL952; test: 4 day proliferation assay (CellTiter-Glo); conditions: Homo sapiens, RL95-2, 96 h, read-out: 4 day assay GI50
[2] = biological target: PXR (Homo sapiens, UniProt O75469); test: PXR activation; type: in vitro ADME
PXR, sequence (O75469 whole entry, species assumed): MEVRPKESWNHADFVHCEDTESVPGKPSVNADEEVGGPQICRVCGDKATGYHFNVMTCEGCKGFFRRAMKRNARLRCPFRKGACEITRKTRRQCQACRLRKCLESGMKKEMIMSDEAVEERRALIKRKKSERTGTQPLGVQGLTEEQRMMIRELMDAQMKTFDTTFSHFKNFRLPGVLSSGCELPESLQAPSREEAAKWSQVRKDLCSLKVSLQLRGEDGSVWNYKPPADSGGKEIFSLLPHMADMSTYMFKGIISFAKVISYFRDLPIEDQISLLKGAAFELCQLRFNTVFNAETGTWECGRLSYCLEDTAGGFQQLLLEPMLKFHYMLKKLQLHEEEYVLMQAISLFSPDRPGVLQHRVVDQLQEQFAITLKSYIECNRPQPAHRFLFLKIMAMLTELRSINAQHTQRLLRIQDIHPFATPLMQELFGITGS

[3] = system: TK6; test: in vitro TK6 MNT; type: cell-based
[4] = system: HEC251; test: CFA 10-14 day clonogenic assay; type: cell-based; conditions: Homo sapiens, HEC-251
[5] = system: HCT116 cells; test: Cell cycle analysis by flow cytometry; type: cell-based, human; conditions: 10 µM for 24 h
Description: About 2 × 10^6 cells were collected by trypsin and washed once with PBS. Cells were pelleted and fixed in 100 µl 4% formaldehyde (Sigma-Aldrich, 47608) for 15 min at room temperature. Cells were washed by centrifugation with an excess of 1× PBS. Pellets were resuspended in 100 µl 1× PBS, then 900 µl of ice-cold methanol (Sigma-Aldrich, 34860) was added drop by drop while vortexing. Cells were incubated for 10 min on ice to permeabilize them. Cells were washed by centrifugation with excess of 1× PBS, pellets were resuspended in 100 µl anti-phosphorylated-histone H3 Ser10 conjugated to PE (Cell Signalling Technology, 5764) antibodies diluted 1:50 in 0.5% BSA PBS buffer and incubated for 1 h at room temperature protected from the light. […] Stained cells were analysed on the Cytoflex flow cytometer (Beckman Coulter).
Data were collected in 10^5 particle units and analysed with CytExpert v.2.4 software. […] These singlets were then analysed for DAPI (DNA content) and PE (phosphorylated histone H3 Ser10) staining intensities. Data were analysed to show the percentage of nuclei in the G1, S and G2/M phases using the DAPI channel and the percentage of cells specifically in G2 or M phase using the PE channel.

[6] = system: SNUC5; test: CFA 10-14 day clonogenic assay; type: cell-based; conditions: Homo sapiens
[7] = system: JHUEM2; test: CFA 10-14 day clonogenic assay; type: cell-based; conditions: Homo sapiens
[8] = In vitro unbound fraction; type: in vitro ADME
[9] = system: LIM2405; test: CFA 10-14 day clonogenic assay; type: cell-based; conditions: Homo sapiens
[10] = Compound 3 blood PK in SW48 tumour-bearing mice; type: in vivo, mouse
Description: All animal studies were conducted in accordance with ethics and procedures covered by permit BS-2275 and BS-1975 issued by the Kantonales Veterinäramt Basel-Stadt and in strict adherence to guidelines of the Eidgenössisches Tierschutzgesetz and the Eidgenössische Tierschutzverordnung, Switzerland. All animal studies were approved by the internal ethics committee. All animals had access to food and water ad libitum and were identified with transponders. They were housed in a specific-pathogen-free facility in IVC racks under a 12 h–12 h light–dark cycle. To establish cell-line-derived xenograft models, 6–7-week-old female athymic nude (Crl:NU(NCr)-Foxn1^nu) or SCID-BEIGE (CB17.Cg-PrkdcscidLystbg-J/Crl) mice from Charles River were engrafted subcutaneously with 5 million tumour cells in HBSS (H6648, Sigma-Aldrich). For SNU-407, Lovo, IM95, RL95.2, Ishikawa and IGROV-1, the cells were concentrated in 50% Matrigel (354234, Corning). Patient-derived xenografts were induced and expanded by transplantation as previously described. […]. For the efficacy experiment, mice were randomized into groups (n = 5–6) for a mean tumour size of 100–150 mm^3. […] Blood samples were collected on day 7 and 91. […]. Tumour responses are reported with the measures of tumour volumes from the treatment start. […]. Animals were randomized (n = 3) and tumour samples were collected at 0, 1, 4, 8 and 24 h on the first day and then collected 4 h after the last treatment on day 3, 8, 10, 14 (including a 24 h timepoint), 17 and 21. Tumours were excised, weighed, either frozen in liquid nitrogen and cryogenic dry pulverized with the CryoPrep system (model CP-02, Covaris) or processed to FFPE after fixation. […]. On day 12, blood samples were collected for PK analysis. On the last day (3 h after the last treatment), tumours were excised, weighed, frozen in liquid nitrogen and cryogenic dry pulverized for PD analysis. […]. […]

Which GI50 [1] does the source give for `CCc1c(N2CCN(C(=O)c3ncnc(C)c3O)CC2)c(=O)n2nc(C3=CCOCC3)nc2n1CC(=O)Nc1ccc(C(F)(F)F)cc1Cl` [HRO761] here?
Its GI50 is 144 nM.

And the PXR activation [2]?
The PXR activation was “No PXR”.

And the “in vitro TK6 MNT” value [3]?
The value was “Negative”.

And the GI50 [4]?
Its GI50 is ≥ 10000 nM.

And the cell cycle effect [5]?
Its cell cycle effect is “potent G2 cell cycle arrest”.

And the GI50 [6]?
The GI50 was 418 nM.

And the GI50 [7]?
The GI50 was 929 nM.

What about the fraction unbound [8] of the same compound?
Its fraction unbound is 0.37.

What about the GI50 [9] of the same compound?
The GI50 was 452 nM.

For `CCc1c(N2CCN(C(=O)c3ncccc3O)CC2)c(=O)n2nc(C3=CCOCC3)nc2n1CC(=O)Nc1ccc(C(F)(F)F)cc1C` [compound 3], which concentration at 4 h ([10]; 15mg/kg BID, 1 h, single mouse, listed as WRNi #4, read-out: Total blood concentration) is on record?
Its concentration at 4 h is 680 nM and 520 nM.

What about the concentration at 4 h ([10]; 15mg/kg BID, 2 h, single mouse, listed as WRNi #4, read-out: Total blood concentration) of the same compound?
The concentration at 4 h was 110 nM and 260 nM and 360 nM.

What about the concentration at 4 h ([10]; 15mg/kg BID, 4 h, single mouse, listed as WRNi #4, read-out: Total blood concentration) of the same compound?
Its concentration at 4 h is 100 nM and 200 nM.

What about the concentration at 4 h ([10]; 15mg/kg BID, 8 h, single mouse, listed as WRNi #4, read-out: Total blood concentration) of the same compound?
The concentration at 4 h was 80 nM and 130 nM and 220 nM.

And the concentration at 4 h ([10]; 15mg/kg BID, last day of the efficacy experiment, 0.5 h post treatment, single mouse, listed as WRNi #4, read-out: Total blood concentration)?
The concentration at 4 h was 450 nM and 470 nM and 950 nM.

And the concentration at 4 h ([10]; 50mg/kg BID, 0.5 h, single mouse, listed as WRNi #4, read-out: Total blood concentration)?
Its concentration at 4 h is 8660 nM and 6870 nM.

And the concentration at 4 h ([10]; 50mg/kg BID, 1 h, single mouse, listed as WRNi #4, read-out: Total blood concentration)?
Its concentration at 4 h is 5090 nM and 4750 nM.

What about the concentration at 4 h ([10]; 50mg/kg BID, 2 h, single mouse, listed as WRNi #4, read-out: Total blood concentration) of the same compound?
The concentration at 4 h was 1600 nM and 2410 nM.

What about the concentration at 4 h ([10]; 50mg/kg BID, 4 h, single mouse, listed as WRNi #4, read-out: Total blood concentration) of the same compound?
The concentration at 4 h was 470 nM and 240 nM and 860 nM.

And the concentration at 4 h ([10]; 50mg/kg BID, 8 h, single mouse, listed as WRNi #4, read-out: Total blood concentration)?
The concentration at 4 h was 100 nM and 210 nM and 230 nM.

And the concentration at 4 h ([10]; 150mg/kg BID, 0.5 h, single mouse, listed as WRNi #4, read-out: Total blood concentration)?
Its concentration at 4 h is 23940 nM and 28210 nM.

And the concentration at 4 h ([10]; 150mg/kg BID, 1 h, single mouse, listed as WRNi #4, read-out: Total blood concentration)?
Its concentration at 4 h is 13050 nM and 11280 nM.

And the concentration at 4 h ([10]; 150mg/kg BID, 2 h, single mouse, listed as WRNi #4, read-out: Total blood concentration)?
Its concentration at 4 h is 7350 nM and 7410 nM.

What about the concentration at 4 h ([10]; 150mg/kg BID, 4 h, single mouse, listed as WRNi #4, read-out: Total blood concentration) of the same compound?
The concentration at 4 h was 3220 nM and 720 nM and 1060 nM.

What about the concentration at 4 h ([10]; 150mg/kg BID, 8 h, single mouse, listed as WRNi #4, read-out: Total blood concentration) of the same compound?
Its concentration at 4 h is 460 nM and 210 nM and 390 nM.

What about the concentration at 0.5 h ([10]; female, mouse, whole blood, oral, 15 mg/kg, 15mg/kg BID, 0.5 h, read-out: Mean total blood concentration) of the same compound?
The concentration at 0.5 h was 620 nM.

And the concentration at 1 h ([10]; female, mouse, whole blood, oral, 15 mg/kg, 15mg/kg BID, 1 h, read-out: Mean total blood concentration)?
Its concentration at 1 h is 680 nM.

And the concentration at 1 h ([10]; female, mouse, whole blood, oral, 15 mg/kg, 15mg/kg BID, 1 h, single mouse, read-out: Total blood concentration)?
Its concentration at 1 h is 840 nM.

What about the concentration at 2 h ([10]; female, mouse, whole blood, oral, 15 mg/kg, 15mg/kg BID, 2 h, read-out: Mean total blood concentration) of the same compound?
The concentration at 2 h was 240 nM.

What about the concentration at 4 h ([10]; female, mouse, whole blood, oral, 15 mg/kg, 15mg/kg BID, 4 h, read-out: Mean total blood concentration) of the same compound?
The concentration at 4 h was 130 nM.

What about the concentration at 4 h ([10]; female, mouse, whole blood, oral, 15 mg/kg, 15mg/kg BID, 4 h, single mouse, read-out: Total blood concentration) of the same compound?
The concentration at 4 h was 100 nM.

And the concentration at 8 h ([10]; female, mouse, whole blood, oral, 15 mg/kg, 15mg/kg BID, 8 h, read-out: Mean total blood concentration)?
The concentration at 8 h was 140 nM.

And the concentration at 0.5 h ([10]; female, mouse, whole blood, oral, 50 mg/kg, 50mg/kg BID, 0.5 h, read-out: Mean total blood concentration)?
The concentration at 0.5 h was 7340 nM.

And the concentration at 0.5 h ([10]; female, mouse, whole blood, oral, 50 mg/kg, 50mg/kg BID, 0.5 h, single mouse, read-out: Total blood concentration)?
Its concentration at 0.5 h is 6500 nM.

And the concentration at 1 h ([10]; female, mouse, whole blood, oral, 50 mg/kg, 50mg/kg BID, 1 h, read-out: Mean total blood concentration)?
Its concentration at 1 h is 4820 nM.

What about the concentration at 1 h ([10]; female, mouse, whole blood, oral, 50 mg/kg, 50mg/kg BID, 1 h, single mouse, read-out: Total blood concentration) of the same compound?
Its concentration at 1 h is 4620 nM.

What about the concentration at 2 h ([10]; female, mouse, whole blood, oral, 50 mg/kg, 50mg/kg BID, 2 h, read-out: Mean total blood concentration) of the same compound?
Its concentration at 2 h is 2060 nM.

What about the concentration at 2 h ([10]; female, mouse, whole blood, oral, 50 mg/kg, 50mg/kg BID, 2 h, single mouse, read-out: Total blood concentration) of the same compound?
Its concentration at 2 h is 2180 nM.

And the concentration at 4 h ([10]; female, mouse, whole blood, oral, 50 mg/kg, 50mg/kg BID, 4 h, read-out: Mean total blood concentration)?
Its concentration at 4 h is 520 nM.

And the concentration at 8 h ([10]; female, mouse, whole blood, oral, 50 mg/kg, 50mg/kg BID, 8 h, read-out: Mean total blood concentration)?
The concentration at 8 h was 180 nM.

And the concentration at 0.5 h ([10]; female, mouse, whole blood, oral, 150 mg/kg, 150mg/kg BID, 0.5 h, read-out: Mean total blood concentration)?
Its concentration at 0.5 h is 22900 nM.

What about the concentration at 0.5 h ([10]; female, mouse, whole blood, oral, 150 mg/kg, 150mg/kg BID, 0.5 h, single mouse, read-out: Total blood concentration) of the same compound?
Its concentration at 0.5 h is 16500 nM.

What about the concentration at 1 h ([10]; female, mouse, whole blood, oral, 150 mg/kg, 150mg/kg BID, 1 h, read-out: Mean total blood concentration) of the same compound?
Its concentration at 1 h is 14700 nM.

And the concentration at 1 h ([10]; female, mouse, whole blood, oral, 150 mg/kg, 150mg/kg BID, 1 h, single mouse, read-out: Total blood concentration)?
The concentration at 1 h was 19700 nM.

And the concentration at 2 h ([10]; female, mouse, whole blood, oral, 150 mg/kg, 150mg/kg BID, 2 h, read-out: Mean total blood concentration)?
The concentration at 2 h was 8330 nM.

What about the concentration at 2 h ([10]; female, mouse, whole blood, oral, 150 mg/kg, 150mg/kg BID, 2 h, single mouse, read-out: Total blood concentration) of the same compound?
Its concentration at 2 h is 10200 nM.

And the concentration at 4 h ([10]; female, mouse, whole blood, oral, 150 mg/kg, 150mg/kg BID, 4 h, read-out: Mean total blood concentration)?
Its concentration at 4 h is 1670 nM.

What about the concentration at 8 h ([10]; female, mouse, whole blood, oral, 150 mg/kg, 150mg/kg BID, 8 h, read-out: Mean total blood concentration) of the same compound?
Its concentration at 8 h is 350 nM.
